Biological target: Autotaxin (Homo sapiens, UniProt Q13822)
Assay: The following assays and their respective methods are carried out with the compounds according to the present invention. […] Those skilled in the art will appreciate that a variety of assay formats may be used to determine the activity of the compounds of this invention.Autotaxin LPC Cascade Assay:Assay Buffer:100 mM Tris-HCl, pH=9500 mM NaCl5 mM MgCl25 mM CaCl20.05% Triton X 100Reagents:Enzyme Source Stock conc Working conc. Final conc. Autotaxin X-Chem 4.6 μM 20 nM 5 nM LPC Sigma L5254 8 mM in assay buffer 400 μM 100 μM Choline Oxidase Sigma C5896 50 U/mL in water 0.8 U/mL 0.1 U/mL HRP Sigma P8375 1000 U/mL in water 8 U/mL 1 U/mL Ampliflu Red Sigma 90101 100 mM in DMSO 400 μM 50 μM.
Format: organism-based

Row | Structure (SMILES) | IC50
1 | CC(C)[C@@H](NC(=O)c1cc(C(F)(F)F)ccc1F)C(=O)N1CCC2(CC1)C(=O)N(C)C(=O)N2c1ccc(OCCN(C)C)cc1 | > 1000 nM
2 | CC(C)[C@@H](NC(=O)c1ccc(C#N)c(Cl)c1)C(=O)N1CCC2(CC1)C(=O)N(C)CN2c1ccccc1 | > 1000 nM
3 | CN1C(=O)N(c2ccc3[nH]ncc3c2)C2(CCN(C(=O)C3(NC(=O)c4cc(C(F)(F)F)ccc4F)COC3)CC2)C1=O | > 1000 nM
4 | Cc1cccc(C(=O)N[C@@H](C(=O)N2CCC3(CC2)C(=O)N(C)CN3c2cccc(C#N)c2)C(C)C)c1F | > 1000 nM
5 | Cc1cccc(C(=O)N(C)[C@@H](C(=O)N2CCC3(CC2)C(=O)N(C)CN3c2ccccc2)C(C)C)c1 | > 1000 nM

Reference: ChEMBL document CHEMBL5726751, “Substituted spirocyclic inhibitors of autotaxin” (2019)
